Source: patent US20210253520A1, “POLYMYXIN-BASED COMPOUNDS USEFUL AS ANTIBACTERIAL AGENTS” (UNIVERSITAT DE BARCELONA, priority 2018, published 2021)
≈ marks a conversion by molar mass, not a printed value. Read-outs that look alike come from different tables or passages of the source. Numbered stars: 1 amine (or outer) side, 2 acyl side, 3 side chain; on linkers, the order of the positions; unused ones are H or OH. Bridge positions count the residues as written; N and C are the ends. Square brackets hold non-standard residues; d marks the D form. Peptide text beside a SMILES is read from it. * marks the point of attachment. X1 = C[C@@H](O)[C@@H](CS[*:1])N[*:2]; dGly(nOct) = CCCCCCCC[C@@H](N)C(=O)O; Hica(2S) = CC(C)C[C@H](O)C(=O)O; Octanoyl = CCCCCCCC(=O)*; Dab = NCC[C@H](N)C(=O)O

Legend:
K. pneumoniae MB674 = assay type: cell-based; details: for antibacterial activity (MIC): MB674
Procedure: (§1) The antibacterial activity of the polymyxin lipopeptides was measured at ISGlobal following the microdilution test to determine the Minimal Inhibitory Concentrations (MIC) in sterile 96-well polypropilene plates. The concentration range was 32 a […] in Iso-Sensitest broth (Oxoid, ThermoFisher). The results were carried out in triplicate and the highest MIC is the one shown. Bacterial strains were grown in blood agar plates at 37° C. for 17 h. Fresh colonies were used to prepare a McFarland 0.5 solution that was finally added to the plates at 1 to 100 dilution
(§2) Samples of sensitive and multi-drug resistant bacteria were: E. coli ATCC 25922 E. coli MB1410; K. pneumoniae MB674; P. aeruginosa ATCC 27853; P. aeruginosa 36A.

P. aeruginosa 36A = assay: microbe, parasite or virus in culture; assay type: cell-based; details: for antibacterial activity (MIC): 36A
Procedure: as §1, §2

E. coli MB1410 = assay: microbe, parasite or virus in culture; assay type: cell-based; details: MB1410
Procedure: as §1, §2

P. aeruginosa ATCC 27853 = assay: microbe, parasite or virus in culture; assay type: cell-based; details: for antibacterial activity (MIC): ATCC 27853; for MIC: resistance profile of strain P. aeruginosa ATCC 27853, Table 3
Procedure: as §1, §2

E. coli ATCC 25922 = assay: microbe, parasite or virus in culture; assay type: cell-based; details: for antibacterial activity (MIC): ATCC 25922; for MIC: resistance profile of strain E. coli ATCC 25922, Table 3
Procedure: as §1, §2

Swiss CD-1 female mice = assay: Nephrotoxicity study, histopathological scoring of kidney lesions; assay type: in vivo; parameters: key to Group Score (GS): mean of per-animal summed 0-4 lesion scores; higher = more nephrotoxic; key to Animal Score (AS), Partial AS: sum of 0-4 lesion parameter scores; higher = more nephrotoxic; details: for Animal Score (AS), Partial AS: sum over all mice
Procedure: Swiss CD-1 female mice weighing approximately 20-24 g (JANVIER Labs) were used, housed in an individually ventilated cage system under specific pathogen-free conditions, and water and food supplied ad libitum. This study plan and the conduct of the study were subjected to review by the Scientific Park of Barcelona Ethical Review Process with the current study procedure Code CEEA (AR) 9377-P2. Mice were administered at a dose of 12 mg/Kg every 2 hours for a total of 6 administrations (total dose 72 mg/Kg), unless otherwise stated. After 20 h, animals were anesthesized with isoflurane, kidneys extracted and prepared for histopathological evaluation, and finally animales were sacrificed. Kidney lesions (tubule dilation, necrosis, tubule casts, cell vacuolization, cell desquamation, and cell swelling) were quantified by microscopical observation (see for instance, Roberts, ACS Infect. Dis., 2015, 1, 568). Each one of these parameters was scored with values from 0 to 4 for each animal, as a global result of observations in kidney. Partial scores have been added up to obtain a final score for each animal (Animal Score, AS). The mean of animal score has been obtained to define the Group Score (GS). The higher the score, the more nephrotoxic a compound is. The nephrotoxicity score has been determined as according to the following table of approximated values: […]

[1] = Table 6, 12 mg/Kg every 2 hours × 6, subcutaneous, total 72 mg/Kg
[2] = Table 6, mean of animal scores, 12 mg/Kg every 2 hours × 6, subcutaneous, total 72 mg/Kg
[3] = Table 6, sum of mouse scores, 12 mg/Kg every 2 hours × 6, subcutaneous, total 72 mg/Kg
[4] = Escherichia coli, ATCC25922, read-out: MIC
[5] = Table 8, 12 mg/Kg every 2 hours × 6 sc, total 72 mg/Kg, 3 mice

| Compound | antibacterial activity (MIC) (K. pneumoniae MB674) | antibacterial activity (MIC) (P. aeruginosa 36A) | antibacterial activity (MIC) (E. coli MB1410) | antibacterial activity (MIC) (P. aeruginosa ATCC 27853) | antibacterial activity (MIC) (E. coli ATCC 25922) | Mice found dead (Swiss CD-1 female mice; [1]) | Group Score (GS) (Swiss CD-1 female mice; [2]) | Cell desquamation, Partial AS (Swiss CD-1 female mice; [3]) | Cell vacuolization, Partial AS (Swiss CD-1 female mice; [3]) | Cloudy swelling, Partial AS (Swiss CD-1 female mice; [3]) | Tubular casts, Partial AS (Swiss CD-1 female mice; [3]) | Tubular dilation, Partial AS (Swiss CD-1 female mice; [3]) | Tubular necrosis, Partial AS (Swiss CD-1 female mice; [3]) | Animal Score (AS), Partial AS (Swiss CD-1 female mice; [1]) | further results |
| --- | --- | --- | --- | --- | --- | --- | --- | --- | --- | --- | --- | --- | --- | --- | --- |
| CCCCCCCC[C@@H](N)C(=O)N[C@H](C(=O)N[C@@H](CCN)C(=O)N[C@H]1CSSC[C@H]([C@@H](C)O)NC(=O)[C@H](CCN)NC(=O)[C@H](CCN)NC(=O)[C@H](CC(C)C)OC(=O)[C@@H](Cc2ccccc2)NC(=O)[C@H](CCN)NC1=O)[C@@H](C)O [Example 10, DAdec-Thr-Dab-cyclo(S-S)[Cys-Dab-DPhe-Ole-Dab-Dab-Ttr]] (H-[dGly(nOct)]T[Dab]C[Dab][dF][Hica(2S)][Dab][Dab]; linker 4-C via X1) | 2 µg/mL | 2 µg/mL | 1 µg/mL | 2 µg/mL | 2 µg/mL | None | 0 | 0 | 0 | 0 | 0 | 0 | 0 | 0 |  |
| C[C@H]1COc2c(N3CCN(C)CC3)c(F)cc3c(=O)c(C(=O)O)cn1c23 [Lev, Levofloxacin] |  |  |  |  |  |  |  |  |  |  |  |  |  |  | MIC (P. aeruginosa ATCC 27853; Pseudomonas aeruginosa, ATCC27853, read-out: MIC): 1.5 µg/mL (≈ 4.15 µM); MIC (E. coli ATCC 25922; [4]): 0.094 µg/mL (≈ 0.26 µM) |
| CCCCCCCC[C@@H](N)C(=O)N[C@H](C(=O)N[C@@H](CCN)C(=O)N[C@H]1CSSC[C@H]([C@@H](C)O)NC(=O)[C@H](CCN)NC(=O)[C@H](CCN)NC(=O)[C@H](CC(C)C)OC(=O)[C@@H](CC(C)C)NC(=O)[C@H](CCN)NC1=O)[C@@H](C)O [Example 8, DAdec-Thr-Dab-cyclo(S-S)[Cys-Dab-DLeu-OLe-Dab-Dab-Ttr]] (H-[dGly(nOct)]T[Dab]C[Dab][dL][Hica(2S)][Dab][Dab]; linker 4-C via X1) | 1 µg/mL | 1 µg/mL | 1 µg/mL | 2 µg/mL | 2 µg/mL | None | 0 | 0 | 0 | 0 | 0 | 0 | 0 | 0 |  |
| CCCCCCCC(=O)N[C@@H](CCN)C(=O)N[C@H](C(=O)N[C@@H](CCN)C(=O)N[C@H]1CSSC[C@H]([C@@H](C)O)NC(=O)[C@H](CCN)NC(=O)[C@H](CCN)NC(=O)[C@H](CC(C)C)OC(=O)[C@@H](Cc2ccccc2)NC(=O)[C@H](CCN)NC1=O)[C@@H](C)O [Example 9, Octanoyl-Dab-Thr-Dab-cyclo(S-S)[Cys-Dab-DPhe-OLe-Dab-Dab-Ttr]] (Octanoyl-[Dab]T[Dab]C[Dab][dF][Hica(2S)][Dab][Dab]; linker 4-C via X1) | 1 µg/mL | 2 µg/mL | 1 µg/mL | 2 µg/mL | 4 µg/mL | 1 | 0 | 0 | 0 | 0 | 0 | 0 | 0 | 0 |  |
| CCCCCCCC(=O)N[C@@H](CCN)C(=O)N[C@H](C(=O)N[C@@H](CCN)C(=O)N[C@H]1CSSC[C@H]([C@@H](C)O)NC(=O)[C@H](CCN)NC(=O)[C@H](CCN)NC(=O)[C@H](CC(C)C)OC(=O)[C@@H](CC(C)C)NC(=O)[C@H](CCN)NC1=O)[C@@H](C)O [Example 7, Octanoyl-Dab-Thr-Dab-cyclo(S-S)[Cys-Dab-DLeu-OLe-Dab-Dab-Ttr]] (Octanoyl-[Dab]T[Dab]C[Dab][dL][Hica(2S)][Dab][Dab]; linker 4-C via X1) | 1 µg/mL | 4 µg/mL | 4 µg/mL | 2 µg/mL | 8 µg/mL |  |  |  |  |  |  |  |  |  |  |
| CO/N=C(\C(=O)N[C@@H]1C(=O)N2C(C(=O)O)=C(COC(C)=O)CS[C@H]12)c1csc(N)n1 [CTX, Cefotaxime] |  |  |  |  |  |  |  |  |  |  |  |  |  |  | MIC (E. coli ATCC 25922; [4]): 0.5 µg/mL (≈ 1.1 µM) |
| CN(C)c1cc(NC(=O)CNC(C)(C)C)c(O)c2c1C[C@H]1C[C@H]3[C@H](N(C)C)C(O)=C(C(N)=O)C(=O)[C@@]3(O)C(O)=C1C2=O [TG, Tigecicline] |  |  |  |  |  |  |  |  |  |  |  |  |  |  | MIC (K. pneumoniae MB674; resistance profile of strain K. pneumoniae MB674, Table 3): 0.5 µg/mL (≈ 0.854 µM); MIC (P. aeruginosa 36A; resistance profile of strain P. aeruginosa 36A, Table 3): 12 µg/mL (≈ 20.5 µM); MIC (P. aeruginosa ATCC 27853): 12 µg/mL (≈ 20.5 µM); MIC (E. coli ATCC 25922): 0.5 µg/mL (≈ 0.854 µM) |
| Nonanoyl-Dab-Thr-Dab-cyclo(S-S)[Cys-Dab-DPhe-Leu-Dab-Dab-Cys] [compound 1] |  |  |  |  |  |  |  |  |  |  |  |  |  |  | AS, Partial AS (Swiss CD-1 female mice; [5]): 12; Cell vacuolization, Partial AS (Swiss CD-1 female mice; [5]): 0; Cloudy swelling, Partial AS (Swiss CD-1 female mice; [5]): 6; Group Score (GS) (Swiss CD-1 female mice; [5]): 4; Mice found dead (Swiss CD-1 female mice; [5]): none; Tubular casts, Partial AS (Swiss CD-1 female mice; [5]): 0; Tubular dilaion, Partial AS (Swiss CD-1 female mice; [5]): 6; Tubular necrosis, Partial AS (Swiss CD-1 female mice; [5]): 0; nephrotoxicity in mice, in words (Swiss CD-1 female mice; nephrotoxicity tests carried out in mice, statement of the background): showed nephrotoxicity |
